These results are taken from EP4527843A1, “STEREOISOMERIC PHOSPHATIDYLOLIGOGLYCEROL” (Thermosome GmbH, priority 2023, dated 2025).

Series [1] is described as follows: PK study in healthy rats after i.v. bolus, normothermia. The conditions noted are these: 2 mg/kg DOX i.v. bolus, rat; result in words. The class given is in vivo, Brown Norway rats. Here is the method:
For the PK study, 18 anaesthetized healthy male Brown Norway rats (-300 g) received a dose of 2 mg/kg DOX of either non-liposomal DOX (n = 6), DPPG2-TSL-DOX (DPPG2 according to formula III) (n = 6), or DPPG2-TSL-DOX (DPPG2 according to WO 97/30059) (n = 6) as i.v. bolus injection, respectively. Body temperature of the animals was controlled via a rectal temperature probe. During anesthesia, the body temperature of animals was maintained by a water bath (37°C). Blood samples were taken at defined time points. DOX and DPPG2 content were measured in plasma by HPLC equipped with a fluorescence detector and LC/MS, respectively.

For series [2], the system named is BN175 tumor (soft tissue sarcoma). Particulars: 2 mg/kg DOX single i.v. bolus in combination with 60 min lamp HT (41°C); ranking in words.
Method: Finally, the therapeutic efficacy of both DPPG2-TSL-DOX formulations was investigated in vivo and compared to selected clinically relevant DOX formulations (e.g., non-liposomal DOX, Caelyx). […] All animals had one BN175 tumor (soft tissue sarcoma) s.c. implanted to one hind leg. Local HT treatment was performed with a light source. Target temperature was 41 °C. Animals were preheated to this temperature for 30 min and temperature was maintained at 41 °C for 60 min after i.v. bolus injection. Animals treated with a DOX formulation received 2 mg/kg DOX as single i.v. bolus injection after one tumor diameter was > 5 mm. After the end of the treatment, animals were placed back into a cage and tumor growth was monitored every 2nd day until reaching an end point (e.g., tumor diameter > 3 cm, exulzeration, bleeding, skin toxicity).
The nature of series [3]: Accumulation of DOX in tumor tissue and organs, rat BN175 sarcoma model. The class given is in vivo, Brown Norway rats. The conditions noted are these: male, Brown Norway, rat, 60 min after i.v. bolus 2 mg/kg DOX.
Method: (§1) Eighteen anaesthetized tumor-bearing male Brown Norway rats (-300 g) received a dose of 2 mg/kg DOX of either non-liposomal DOX (n = 6), DPPG2-TSL-DOX (DPPG2 according to formula III) (n = 6), or DPPG2-TSL-DOX (DPPG2 according to WO 97/30059) (n = 6) as i.v. bolus injection, respectively. All animals had two BN175 tumors (soft tissue sarcoma) subcutaneously implanted to each hind leg, respectively. One tumor received 60 min of a local HT treatment with a light source of 41.5°C, whereas the second tumor remained untreated (room temperature, NT). […] Animals were sacrificed after 60 min, organs were perfused, and tumors and organs were collected. DOX content was measured in plasma by HPLC equipped with a fluorescence detector.
For series [4], the system named is BN175 tumors (soft tissue sarcoma). The description is as above. The class given is in vivo, Brown Norway rats.
Method: as §1
In series [5] the target is T1, Phospholipase A2 (Sus scrofa, UniProt P00592).
T1 construct: commercially available enzyme (extracted from porcine pancreas) was used; purchased; host or cells: porcine pancreas (tissue extract)
T1 sequence (P00592 23-146): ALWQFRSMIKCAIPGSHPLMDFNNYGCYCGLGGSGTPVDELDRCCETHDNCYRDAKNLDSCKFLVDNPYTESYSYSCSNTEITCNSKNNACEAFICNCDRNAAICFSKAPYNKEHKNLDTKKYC
The series can be described thus: Stereospecific cleavage of DPPG2 with Phospholipase A2 (HPLC/CAD). The class given is in vitro ADME, porcine. The conditions noted are these: 0.5 U enzyme; for DPPG2 still detectable in the sample: after 10 min, 2 µmol lipid, Tris-buffer pH 8.5 with CaCl2, 37°C, normalized to t=0 min. Here is the method: Phospholipases are enzymes that selectively cleave bonds in glycerophospholipids based on their stereochemistry. They play a role in the metabolization of glycerophospholipids in vivo. Phospholipase A2 hydrolyzes 1,2-acyl-sn-glycero-3-phospholipids to their 1-acyl-sn-glycero-3-phospholipid and the corresponding fatty acid. For the experiments, commercially available enzyme (extracted from porcine pancreas) was used. Lipid samples (2 µmol) were dissolved 1.5 wt% deoxycholate and subsequently incubated in Tris-buffer pH 8.5 supplemented with CaCl2 together with 0.5 U enzyme in a thermoshaker at 37°C. At distinct time points, samples were taken and cleavage was analyzed by HPLC. […] The analytes are separated using a gradient elution using 100 mM NH4Ac pH 6.0 in water and methanol as eluent A and eluent B, respectively. Column oven was set to 35°C.
Three DPPG2 batches differing in configurations of the stereogenic centers in their diglycerol headgroup were tested and DPPC was applied as control glycerophospholipid (Figure 2). […] After 10 min, 14.8%, 20.4%, and 24.3% of DPPG2 according to WO 9730058, WO 2014/202680 A1, and Formula III, respectively, was still detectable in the sample.

Read-outs that look alike come from different tables or passages of the source.

For `COc1cccc2c1C(=O)c1c(O)c3c(c(O)c1C2=O)C[C@@](O)(C(=O)CO)C[C@@H]3O[C@H]1C[C@H](N)[C@H](O)[C@H](C)O1` [non-liposomal DOX, doxorubicin], in series [1], the DOX plasma clearance entry is “cleared within minutes”. The “survival (Kaplan-Meier, 5-fold increase in tumor volume) / therapeutic efficacy” value in series [2] is given as “comparable”. Also, the concentration at 60 min is 3100 ± 500 ng/g in series [3] (heated BN175 tumor (HT 41.5°C), iv, HT 41.5°C, read-out: DOX concentration in the heated tumors) and 1900 ± 300 ng/g in series [3] (untreated BN175 tumor (NT, iv), NT, room temperature, read-out: DOX concentration in the untreated tumors). In addition, in series [4] (60 min after i.v. bolus 2 mg/kg DOX, result in words), the “DOX accumulation in lung and heart compared to both DPPG2-TSL-DOX formulations” value is listed as “significantly higher”. For the same molecule, the “increase of DOX tumor accumulation by HT application (compared to the content in the untreated tumors)” value in series [4] (60 min local HT 41.5°C light source vs untreated tumor, 2 mg/kg DOX i.v.) was determined as 1.6 fold.
`CCCCCCCCCCCCCCCC(=O)OC[C@H](COP(=O)(O)OC[C@@H](O)COC[C@H](O)CO)OC(=O)CCCCCCCCCCCCCCC` [DPPG2 according to Formula III, 1,2-dipalmitoyl-sn-glycero-3-phospho-sn-1'-glycero-sn-3"-glycerol]: in series [5], the “DPPG2 still detectable in the sample” value is given as 24.3%.
The same measure, in the same setting: as for `CCCCCCCCCCCCCCCC(=O)OC[C@H](COP(=O)(O)OCC(O)COCC(O)CO)OC(=O)CCCCCCCCCCCCCCC` (mixture of isomers) [DPPG2 according to WO 9730058, 1,2-Dipalmitoyl-sn-glycero-3-phospho-rac-diglycerol], the figure is 14.8%.
The same measure, in the same setting: as for `CCCCCCCCCCCCCCCC(=O)OC[C@H](COP(=O)(O)OC[C@@H](O)COCC(O)CO)OC(=O)CCCCCCCCCCCCCCC` (stereo partly shown) [DPPG2 according to WO 2014/202680 A1, 1,2-Dipalmitoyl-sn-glycero-3-phospho-sn-1'-diglycerol], the figure is 20.4%.
Regarding `CCCCCCCCCCCCCCCC(=O)OC[C@H](COP(=O)([O-])OCC[N+](C)(C)C)OC(=O)CCCCCCCCCCCCCCC` [DPPC, 1,2-dipalmitoyl-sn-glycero-3-phosphocholine], the “cleavage by phospholipase A2 compared with DPPG2” value in series [5] (control glycerophospholipid, 37°C) is reported as “cleaved notably slower than DPPG2”.
